Laboratory results as given in article PMC5218480 (PLoS ONE, 2017).

System: MV-4-11 cells
Experiment: Gene expression microarray analysis (Affymetrix PrimeView) and GSEA
Assay type: cell-based, human
Design: RFU PODN (11730768_x_at) / Fold change /veh PODN (11730768_x_at) / RFU LINC00158 (11744669_a_at) / Fold change /veh LINC00158 (11744669_a_at) / RFU DUSP10 (11751237_a_at) / Fold change /veh DUSP10 (11751237_a_at) / RFU ID3 (11757404_x_at) / Fold change /veh ID3 (11757404_x_at) / RFU PLEKHG5 (11737974_s_at) / Fold change /veh PLEKHG5 (11737974_s_at) / RFU LRRC4B (11730491_at) / Fold change /veh LRRC4B (11730491_at) / RFU GIMAP4 (11747438_a_at) / Fold change /veh GIMAP4 (11747438_a_at) / RFU KRT8 (11758183_x_at) / Fold change /veh KRT8 (11758183_x_at) / RFU CNN1 (11734310_a_at) / Fold change /veh CNN1 (11734310_a_at) / RFU VPS37D (11726825_at) / Fold change /veh VPS37D (11726825_at) / RFU C10orf10 (11716522_x_at) / Fold change /veh C10orf10 (11716522_x_at) / RFU KIR2DL2 /// KIR2DL4 /// KIR2DL5A /// KIR2DL5B /// KIR2DS1 /// KIR2DS2 /// KIR2DS3 /// KIR2DS4 /// KIR3DL3 /// KIR3DL3 /// KIR3DS1 (11738374_at) / Fold change /veh KIR2DL2 /// KIR2DL4 /// KIR2DL5A /// KIR2DL5B /// KIR2DS1 /// KIR2DS2 /// KIR2DS3 /// KIR2DS4 /// KIR3DL3 /// KIR3DL3 /// KIR3DS1 (11738374_at) / RFU C1QL1 (11718748_at) / Fold change /veh C1QL1 (11718748_at) / RFU TMPRSS4 (11747572_a_at) / Fold change /veh TMPRSS4 (11747572_a_at) / RFU HAMP (11756126_x_at) / Fold change /veh HAMP (11756126_x_at) / RFU RNFT2 (11725882_a_at) / Fold change /veh RNFT2 (11725882_a_at) / RFU NR4A2 (11747474_a_at) / Fold change /veh NR4A2 (11747474_a_at) / RFU ABCC12 (11746883_a_at) / Fold change /veh ABCC12 (11746883_a_at) / RFU TMEM136 (11760407_x_at) / Fold change /veh TMEM136 (11760407_x_at) / RFU CLDN22 /// WWC2 (11732394_at) / Fold change /veh CLDN22 /// WWC2 (11732394_at) / RFU HLA-DPB1 (11760878_x_at) / Fold change /veh HLA-DPB1 (11760878_x_at) / RFU SPINT1 (11716480_a_at) / Fold change /veh SPINT1 (11716480_a_at) / RFU GAP43 (11754022_s_at) / Fold change /veh GAP43 (11754022_s_at) / RFU A4GNT (11735810_at) / Fold change /veh A4GNT (11735810_at) / RFU PRB3 (11715151_x_at) / Fold change /veh PRB3 (11715151_x_at) / RFU TUBB4B (11761932_at) / Fold change /veh TUBB4B (11761932_at) / RFU CAPN14 (11732068_a_at) / Fold change /veh CAPN14 (11732068_a_at) / RFU TMCC2 (11721928_a_at) / Fold change /veh TMCC2 (11721928_a_at) / RFU IRGQ (11745062_a_at) / Fold change /veh IRGQ (11745062_a_at) / RFU FAM174B (11720279_a_at) / Fold change /veh FAM174B (11720279_a_at) / RFU TMPRSS4 (11748680_a_at) / Fold change /veh TMPRSS4 (11748680_a_at) / RFU FAM212B (11763350_a_at) / Fold change /veh FAM212B (11763350_a_at) / RFU PLEKHG5 (11743358_a_at) / Fold change /veh PLEKHG5 (11743358_a_at) / RFU ZSCAN30 (11745921_a_at) / Fold change /veh ZSCAN30 (11745921_a_at) / RFU CMKLR1 (11741424_a_at) / Fold change /veh CMKLR1 (11741424_a_at) / RFU LOC101060620 /// MAPK8IP1 (11723275_at) / Fold change /veh LOC101060620 /// MAPK8IP1 (11723275_at) / RFU SPTSSB (11747773_x_at) / Fold change /veh SPTSSB (11747773_x_at) / RFU PRSS12 (11739890_at) / Fold change /veh PRSS12 (11739890_at) / RFU BIN1 (11741810_x_at) / Fold change /veh BIN1 (11741810_x_at) / RFU WNT11 (11732464_a_at) / Fold change /veh WNT11 (11732464_a_at) / RFU C10orf10 (11716521_a_at) / Fold change /veh C10orf10 (11716521_a_at) / RFU C5orf56 (11738089_at) / Fold change /veh C5orf56 (11738089_at) / RFU CYB561 (11721691_x_at) / Fold change /veh CYB561 (11721691_x_at) / RFU ANKRD19P (11752326_a_at) / Fold change /veh ANKRD19P (11752326_a_at) / RFU OR2T12 /// OR2T33 /// OR2T8 (11738714_s_at) / Fold change /veh OR2T12 /// OR2T33 /// OR2T8 (11738714_s_at) / RFU VCAN (11748164_a_at) / Fold change /veh VCAN (11748164_a_at) / RFU JSRP1 (11732532_at) / Fold change /veh JSRP1 (11732532_at) / RFU KRTAP10-11 (11738290_x_at) / Fold change /veh KRTAP10-11 (11738290_x_at) / RFU MYO3A (11730013_a_at) / Fold change /veh MYO3A (11730013_a_at) / RFU EBF3 (11725865_a_at) / Fold change /veh EBF3 (11725865_a_at) / RFU CAMK2N1 (11719241_x_at) / Fold change /veh CAMK2N1 (11719241_x_at) / RFU C5orf56 (11738088_a_at) / Fold change /veh C5orf56 (11738088_a_at) / RFU OLFML3 (11715873_a_at) / Fold change /veh OLFML3 (11715873_a_at) / RFU LOC100653217 /// NTM (11731650_a_at) / Fold change /veh LOC100653217 /// NTM (11731650_a_at) / RFU MAPK11 (11762145_a_at) / Fold change /veh MAPK11 (11762145_a_at) / RFU FIZ1 (11724087_x_at) / Fold change /veh FIZ1 (11724087_x_at) / RFU OASL (11726364_x_at) / Fold change /veh OASL (11726364_x_at) / RFU SOX15 (11748057_x_at) / Fold change /veh SOX15 (11748057_x_at) / RFU CD79A (11719716_a_at) / Fold change /veh CD79A (11719716_a_at) / RFU HIST1H1D (11736915_at) / Fold change /veh HIST1H1D (11736915_at) / RFU CASKIN2 (11723855_a_at) / Fold change /veh CASKIN2 (11723855_a_at) / RFU LOC730098 (11760151_x_at) / Fold change /veh LOC730098 (11760151_x_at) / RFU OR4N2 (11742367_at) / Fold change /veh OR4N2 (11742367_at) / RFU PRRT2 (11749266_a_at) / Fold change /veh PRRT2 (11749266_a_at) / RFU SNX32 (11753110_a_at) / Fold change /veh SNX32 (11753110_a_at) / RFU CDHR5 (11726645_a_at) / Fold change /veh CDHR5 (11726645_a_at) / RFU RCAN1 (11760418_a_at) / Fold change /veh RCAN1 (11760418_a_at) / RFU FAM167A (11723789_a_at) / Fold change /veh FAM167A (11723789_a_at) / RFU FAM26E (11764081_at) / Fold change /veh FAM26E (11764081_at) / RFU ISYNA1 (11749810_s_at) / Fold change /veh ISYNA1 (11749810_s_at) / RFU ACY1 (11761880_at) / Fold change /veh ACY1 (11761880_at) / RFU 11764098_at / Fold change /veh 11764098_at / RFU SAMD14 (11745864_x_at) / Fold change /veh SAMD14 (11745864_x_at) / RFU NPB (11741838_a_at) / Fold change /veh NPB (11741838_a_at) / RFU TMPRSS6 (11731388_a_at) / Fold change /veh TMPRSS6 (11731388_a_at) / RFU KRTAP10-2 (11738614_at) / Fold change /veh KRTAP10-2 (11738614_at) / RFU ARHGAP8 /// PRR5-ARHGAP8 (11727945_x_at) / Fold change /veh ARHGAP8 /// PRR5-ARHGAP8 (11727945_x_at) / RFU KRTAP5-7 /// NADSYN1 (11734609_at) / Fold change /veh KRTAP5-7 /// NADSYN1 (11734609_at) / RFU RASL12 (11751679_a_at) / Fold change /veh RASL12 (11751679_a_at) / RFU CDKN2B (11736163_a_at) / Fold change /veh CDKN2B (11736163_a_at) / RFU PRF1 (11729649_at) / Fold change /veh PRF1 (11729649_at) / RFU, ZNF638 /// ZNF638-IT1 / Fold change vs veh, ZNF638 /// ZNF638-IT1 / RFU, PANK3 / Fold change vs veh, PANK3 / RFU, SH3YL1 / Fold change vs veh, SH3YL1 / RFU, ZEB2 / Fold change vs veh, ZEB2 / RFU, NRIP1 / Fold change vs veh, NRIP1 / RFU, PTTG1IP / Fold change vs veh, PTTG1IP / RFU, CAPN2 / Fold change vs veh, CAPN2 / RFU, MED14 / Fold change vs veh, MED14 / RFU, SNORA58 / Fold change vs veh, SNORA58 / RFU, C1orf63 / Fold change vs veh, C1orf63 / RFU, LRRFIP1 / Fold change vs veh, LRRFIP1 / RFU, NDUFAF7 / Fold change vs veh, NDUFAF7 / RFU, SLC12A2 / Fold change vs veh, SLC12A2 / RFU, IBTK / Fold change vs veh, IBTK / RFU, ESF1 / Fold change vs veh, ESF1 / Fold change vs veh, TMEM50B / RFU, TAOK1 / Fold change vs veh, TAOK1 / RFU, ACBD3 / Fold change vs veh, ACBD3 / RFU, TMA16 / Fold change vs veh, TMA16 / RFU, RWDD3 / Fold change vs veh, RWDD3 / RFU, BCAT1 / Fold change vs veh, BCAT1 / RFU, EDEM3 / Fold change vs veh, EDEM3 / RFU, TMEM33 / Fold change vs veh, TMEM33 / RFU, WDR75 / Fold change vs veh, WDR75 / RFU, AHCTF1 / Fold change vs veh, AHCTF1 / RFU, TFRC / Fold change vs veh, TFRC / RFU, ZDHHC17 / Fold change vs veh, ZDHHC17 / RFU, NOM1 / Fold change vs veh, NOM1 / RFU, ARL8B / Fold change vs veh, ARL8B / RFU, ZBTB11 / Fold change vs veh, ZBTB11 / RFU, TAMM41 / Fold change vs veh, TAMM41 / RFU, KIAA1704 /// LOC100996395 / Fold change vs veh, KIAA1704 /// LOC100996395 / RFU, ING1 / Fold change vs veh, ING1 / RFU, TRMT61B / Fold change vs veh, TRMT61B / RFU, FUBP3 / Fold change vs veh, FUBP3 / RFU, TP53 / Fold change vs veh, TP53 / RFU, TNKS2 / Fold change vs veh, TNKS2 / RFU, ZFP14 / Fold change vs veh, ZFP14 / RFU, ACTR2 / Fold change vs veh, ACTR2 / RFU, PPP3R1 / Fold change vs veh, PPP3R1 / RFU, PIK3R1 / Fold change vs veh, PIK3R1 / RFU, HNRNPA1 / Fold change vs veh, HNRNPA1 / RFU, RNF170 / Fold change vs veh, RNF170 / RFU, ZNF28 / Fold change vs veh, ZNF28 / RFU, RNGTT / Fold change vs veh, RNGTT / RFU, OGT / Fold change vs veh, OGT / RFU, BRD1 / Fold change vs veh, BRD1 / RFU, MARS / Fold change vs veh, MARS / RFU, ZNF655 / Fold change vs veh, ZNF655 / RFU, FAHD1 / Fold change vs veh, FAHD1 / RFU, BDP1 / Fold change vs veh, BDP1 / RFU, LRRCC1 / Fold change vs veh, LRRCC1 / RFU, ARID1A / Fold change vs veh, ARID1A / RFU, ZNF146 / Fold change vs veh, ZNF146 / RFU, ZNF330 / Fold change vs veh, ZNF330 / RFU, GPN3 / Fold change vs veh, GPN3 / RFU, C9orf123 / Fold change vs veh, C9orf123 / RFU, N4BP2L2 / Fold change vs veh, N4BP2L2 / RFU, ARFIP1 / Fold change vs veh, ARFIP1 / RFU, FAM179B / Fold change vs veh, FAM179B / RFU, BCL10 / Fold change vs veh, BCL10 / RFU, UHRF1BP1L / Fold change vs veh, UHRF1BP1L / RFU, BET1 / Fold change vs veh, BET1 / RFU, CNOT2 / Fold change vs veh, CNOT2 / RFU, ZNF268 / Fold change vs veh, ZNF268 / Fold change vs veh, ZNF507 / RFU, DGCR2 / Fold change vs veh, DGCR2 / RFU, WDSUB1 / Fold change vs veh, WDSUB1 / Fold change vs veh, HSP90B1 /// MIR3652 / RFU, ADSS / Fold change vs veh, ADSS / RFU, GK / Fold change vs veh, GK / RFU, ZNF148 / Fold change vs veh, ZNF148 / RFU, TAF9 / Fold change vs veh, TAF9 / RFU, SLC1A5 / Fold change vs veh, SLC1A5 / RFU, SLMO2 / Fold change vs veh, SLMO2 / RFU, ABCC4 / Fold change vs veh, ABCC4 / RFU, LOC101060439 /// RAP1B / Fold change vs veh, LOC101060439 /// RAP1B / RFU, RFX7 / Fold change vs veh, RFX7 / RFU, GTPBP10 / Fold change vs veh, GTPBP10 / RFU, CNEP1R1 / Fold change vs veh, CNEP1R1 / RFU, BIVM-ERCC5 /// ERCC5 / Fold change vs veh, BIVM-ERCC5 /// ERCC5 / RFU, ILF3 / Fold change vs veh, ILF3 / RFU 11762660_at / Fold change /veh 11762660_at / RFU VCAN (11757783_s_at) / Fold change /veh VCAN (11757783_s_at) / RFU DDX43 (11728927_at) / Fold change /veh DDX43 (11728927_at) / RFU KRT8 (11758188_x_at) / Fold change /veh KRT8 (11758188_x_at) / RFU NKD1 (11759106_at) / Fold change /veh NKD1 (11759106_at) / RFU SRD5A1 (11742802_a_at) / Fold change /veh SRD5A1 (11742802_a_at) / RFU TPSAB1 /// TPSB2 (11721975_s_at) / Fold change /veh TPSAB1 /// TPSB2 (11721975_s_at) / RFU GSTM3 (11746129_a_at) / Fold change /veh GSTM3 (11746129_a_at) / RFU IL23R (11737362_x_at) / Fold change /veh IL23R (11737362_x_at) / RFU TMEM51 (11727254_a_at) / Fold change /veh TMEM51 (11727254_a_at) / RFU PIWIL2 (11732686_x_at) / Fold change /veh PIWIL2 (11732686_x_at) / RFU ORM1 (11744905_x_at) / Fold change /veh ORM1 (11744905_x_at) / RFU CCDC152 (11743942_at) / Fold change /veh CCDC152 (11743942_at) / RFU ECM1 (11717891_a_at) / Fold change /veh ECM1 (11717891_a_at) / RFU IL23R (11748794_a_at) / Fold change /veh IL23R (11748794_a_at) / RFU TNFAIP8L3 (11732012_x_at) / Fold change /veh TNFAIP8L3 (11732012_x_at) / RFU MBOAT4 (11741988_at) / Fold change /veh MBOAT4 (11741988_at) / RFU 11764193_at / Fold change /veh 11764193_at / RFU TMEM53 (11763286_at) / Fold change /veh TMEM53 (11763286_at) / RFU MAGEB2 (11727129_at) / Fold change /veh MAGEB2 (11727129_at) / RFU TMEM200A (11744735_a_at) / Fold change /veh TMEM200A (11744735_a_at) / RFU CCDC152 (11751479_a_at) / Fold change /veh CCDC152 (11751479_a_at) / RFU FAM211A (11726209_a_at) / Fold change /veh FAM211A (11726209_a_at) / RFU RGS16 (11746705_a_at) / Fold change /veh RGS16 (11746705_a_at) / RFU VCAN (11755009_s_at) / Fold change /veh VCAN (11755009_s_at) / RFU RHOB (11743442_s_at) / Fold change /veh RHOB (11743442_s_at) / RFU RGS16 (11720943_a_at) / Fold change /veh RGS16 (11720943_a_at) / RFU RGS16 (11720944_at) / Fold change /veh RGS16 (11720944_at) / RFU, VPS4B / Fold change vs veh, VPS4B / RFU, CREB1 / Fold change vs veh, CREB1 / RFU, DNAJC13 / Fold change vs veh, DNAJC13 / RFU, GNAQ / Fold change vs veh, GNAQ / RFU, CDK5R1 / Fold change vs veh, CDK5R1 / RFU, ZRANB3 / Fold change vs veh, ZRANB3 / RFU, CUL4A / Fold change vs veh, CUL4A / RFU, CCNY / Fold change vs veh, CCNY / RFU, UFL1 / Fold change vs veh, UFL1 / RFU, COG3 / Fold change vs veh, COG3 / RFU, DIAPH2 / Fold change vs veh, DIAPH2 / RFU, SKA2 / Fold change vs veh, SKA2 / RFU, AFF3 / Fold change vs veh, AFF3 / RFU, LMF1 / Fold change vs veh, LMF1 / RFU, IPO11 / Fold change vs veh, IPO11 / RFU, DFFB / Fold change vs veh, DFFB / RFU, FOXP1 / Fold change vs veh, FOXP1 / RFU, CARD8 / Fold change vs veh, CARD8 / RFU, STRN3 / Fold change vs veh, STRN3 / RFU, ADK / Fold change vs veh, ADK / RFU, RASSF2 / Fold change vs veh, RASSF2 / RFU, WIPF1 / Fold change vs veh, WIPF1 / RFU, LARP1B / Fold change vs veh, LARP1B / RFU, RASA1 / Fold change vs veh, RASA1 / RFU, RB1 / Fold change vs veh, RB1 / RFU, PPFIA1 / Fold change vs veh, PPFIA1 / RFU, MAT2A / Fold change vs veh, MAT2A / RFU, CCT5 / Fold change vs veh, CCT5 / RFU, WDR92 / Fold change vs veh, WDR92 / RFU, CUX1 / Fold change vs veh, CUX1 / RFU, TTC7A / Fold change vs veh, TTC7A / RFU, TMEM135 / Fold change vs veh, TMEM135 / RFU, DEPTOR / Fold change vs veh, DEPTOR / RFU, CPM / Fold change vs veh, CPM / RFU, DNAJB6 / Fold change vs veh, DNAJB6 / RFU, CACNA2D3 / Fold change vs veh, CACNA2D3 / RFU, DTX4 / Fold change vs veh, DTX4 / RFU, TFCP2 / Fold change vs veh, TFCP2 / RFU, GMCL1 /// GMCL1P1 / Fold change vs veh, GMCL1 /// GMCL1P1 / RFU, AEBP2 / Fold change vs veh, AEBP2 / RFU, SNHG1 /// SNORD22 /// SNORD25 /// SNORD26 /// SNORD27 /// SNORD28 /// SNORD29 /// SNORD31 / Fold change vs veh, SNHG1 /// SNORD22 /// SNORD25 /// SNORD26 /// SNORD27 /// SNORD28 /// SNORD29 /// SNORD31 / Fold change (Aza/veh), C12orf56 (ProbeSet 11735607_a_at) / Fold change (ACY-1035/veh), C12orf56 (ProbeSet 11735607_a_at) / Fold change (Aza/veh), FGFR1OP (ProbeSet 11751329_s_at) / Fold change (ACY-1035/veh), FGFR1OP (ProbeSet 11751329_s_at) / Fold change (Aza/veh), VPS36 (ProbeSet 11739960_a_at) / Fold change (ACY-1035/veh), VPS36 (ProbeSet 11739960_a_at) / RFU SYPL1 (11715823_x_at) / Fold change /veh SYPL1 (11715823_x_at) / RFU IGFBP7 (11715501_s_at) / Fold change /veh IGFBP7 (11715501_s_at) / RFU REEP3 (11722064_at) / Fold change /veh REEP3 (11722064_at) / RFU IGLL1 (11728026_x_at) / Fold change /veh IGLL1 (11728026_x_at): dose or concentration left out as unconfirmed
Conditions: ProbeSet 11719185_x_at; LIST B

SMILES: Nc1ccc(-c2cccs2)cc1NC(=O)c1ccc2c(c1)cc(C1CC1)n2CCN1CCOCC1 [ACY-1035]
- Fold change vs veh, N4BP2L2: 1.03
